Where two headings read alike, the source gives them in different places.
Experiments:
Type in all cases: cell-based
[1] = tested on: HSP90 client protein Her2 in SKBR-3 cells; assay: Her-2 degradation assay (Her-2 ELISA) in SKBr-3 cells; details: Homo sapiens, 18 hours
Description: Most of the compounds synthesized were evaluated for their ability to induce degradation of the HSP90 client protein Her2 in SKBR-3 cells. Selected compounds were evaluated in a fluorescence polarization (FP) assay for their affinity to HSP90.
SKBr-3 cells grown in McCoy's 5a Medium supplemented with 10% fetal bovine serum (FBS) were plated into 12-well plates at 50% confluency. Increasing concentrations of inhibitors were added 24 hours later (cells are 65-70% confluent) and incubated overnight for 18 hours. The wells were washed with 2 ml of phosphate buffered saline (PBS), and 50 ul of trypsin was added to each well. After trypsinization was complete, 150 ul of FBS was added to each well. Then 200 ul of cells were transferred to 96-well plates and plates were centrifuged at 1200 rpm for 2 minutes using a tabletop centrifuge. The cells were washed once with 250 ul PBS before being lysed with 100 ul of 50 mM Tris (pH 7.4), 0.1% NP-40 lysis buffer. Protein concentrations of clarified lysates were determined using the BCA Assay (Calbiochem) according to the manufacturer's instructions. 2 ug of each lysate was analyzed in the human sp 185 Her-2 ELISA (Bender Medsystems) according to the manufacturer's instructions. ELISA plates were read at 450 nm using a multiwell plate spectrophotometer. Background was determined by measuring the Abs 450 nm of wells with no lysate added. The background value was subtracted from all values. Absorbance 450 nm values for each inhibitor were plotted against the log 10 inhibitor concentration, and IC50 values were calculated using a nonlinear least-square curve fitting program in Prism 5.

MCF-7 = assay: MTS assay (cytotoxicity), growth inhibition of MCF-7; details: Homo sapiens, MCF7, 120 h
Description: (§1) Cells were seeded in 96-well plates at 2000 cells/well in a final culture volume of 100 ul for 24 hours before the addition of 25 ul of increasing concentrations of inhibitors that was incubated for 5 days. Viable cell number was determined using the CellTiter 96 AQueous One Solution Cell Proliferation Assay (Promega). Plates were read at 490 nm absorbance 2-4 hours after addition of the MTS reagent using a multiwell plate spectrophotometer. Background was determined by measuring the Abs 490 nm of cell culture medium and MTS in the absence of cells. The background value was subtracted from all values. Absorbance 490 nm values for each inhibitor were plotted against the log 10 inhibitor concentration, and IC50 values were calculated using a nonlinear least-square curve fitting program in Prism 5.

HT29 = assay: MTS assay (cytotoxicity), growth inhibition of HT29; details: Homo sapiens, HT-29, 120 h
Description: as §1

BT474 = assay: MTS assay (cytotoxicity), growth inhibition of BT474; details: Homo sapiens, BT-474, 120 h
Description: as §1

SKBR-3 = assay: MTS assay (cytotoxicity), growth inhibition of SKBR-3; details: Homo sapiens, SK-BR-3, 120 h
Description: as §1

[2] = SK-BR-3, Table 1, series I, means of three independent experiments
[3] = Table 4, 5 days, means of three independent experiments, read-out: MCF-7 IC50 (growth inhibition)
[4] = Table 4, 5 days, means of three independent experiments, read-out: HT29 IC50 (growth inhibition)
[5] = Table 4, 5 days, means of three independent experiments, read-out: BT474 IC50 (growth inhibition)
[6] = Table 4, 5 days, means of three independent experiments, read-out: SKBR-3 IC50 (growth inhibition)
[7] = Table 5, series III, 5 days, read-out: Growth Inhibition (IC50) MCF-7
[8] = Table 5, series III, 5 days, read-out: Growth Inhibition (IC50) HT29
[9] = Table 5, series III, 5 days, read-out: Growth Inhibition (IC50) BT474
[10] = Table 5, series III, 5 days, read-out: Growth Inhibition (IC50) SKBR-3

| Compound | IC50 [1, 2] | IC50 (MCF-7; [3]) | IC50 (HT29; [4]) | IC50 (BT474; [5]) | IC50 (SKBR-3; [6]) | IC50 ([1]; SK-BR-3, Table 5, series III) | IC50 (MCF-7; [7]) | IC50 (HT29; [8]) | IC50 (BT474; [9]) | IC50 (SKBR-3; [10]) |
| --- | --- | --- | --- | --- | --- | --- | --- | --- | --- | --- |
| COc1c(C)cnc(CN2CC(=O)N(CCN3CCCC3)c3c(Cl)nc(N)nc32)c1C [Example I-7] | 0.51 µM | 1.32 µM | 1.08 µM | 0.52 µM | 0.3 µM | – | – | – | – | – |
| COc1c(C)cnc(CN2CC(=O)N(CCCN3CCOCC3)c3c(Cl)nc(N)nc32)c1C [Example I-10] | 1.55 µM | 2.59 µM | 2.95 µM | 1.81 µM | 1.11 µM | – | – | – | – | – |
| COc1c(C)cnc(CN2C(=O)/C(=C\c3ccc[nH]3)c3c(Cl)nc(N)nc32)c1C [III-1, 2-Amino-4-chloro-7-(4-methoxy-3,5-dimethyl-pyridin-2-ylmethyl)-5-[1-(1H-pyrrol-2-yl)-meth-(Z)-ylidene]-5,7-dihydro-pyrrolo[2,3-d]pyrimidin-6-one] | – | – | – | – | – | 0.09 µM | 0.09 µM | 0.03 µM | 0.03 µM | 0.09 µM |
| COc1c(C)cnc(CN2C(=O)/C(=C\c3[nH]c(C)cc3C)c3c(Cl)nc(N)nc32)c1C [III-2, 2-Amino-4-chloro-5-[1-(3,5-dimethyl-1H-pyrrol-2-yl)-meth-(Z)-ylidene]-7-(4-methoxy-3,5-dimethyl-pyridin-2-ylmethyl)-5,7-dihydro-pyrrolo[2,3-d]pyrimidin-6-one] | – | – | – | – | – | 1.67 µM | 3.65 µM | 1.21 µM | 1.02 µM | 0.96 µM |
| COc1c(C)cnc(CN2C(=O)/C(=C\c3ncc[nH]3)c3c(Cl)nc(N)nc32)c1C [III-3, 2-Amino-4-chloro-5-[1-(1H-imidazol-2-yl)-meth-(Z)-ylidene]-7-(4-methoxy-3,5-dimethyl-pyridin-2-ylmethyl)-5,7-dihydro-pyrrolo[2,3-d]pyrimidin-6-one] | – | – | – | – | – | 0.09 µM | 0.1 µM | 0.07 µM | 0.06 µM | 0.04 µM |
| COc1c(C)cnc(CN2C(=O)/C(=C\c3[nH]c(C)c(C(=O)NCCN4CCCC4)c3C)c3c(Cl)nc(N)nc32)c1C [III-104, (Z)-5-((2-Amino-4-chloro-7-((4-methoxy-3,5-dimethylpyridin-2-yl)methyl)-6-oxo-6,7-dihydro-5H-pyrrolo[2,3-d]pyrimidin-5-ylidene)methyl)-2,4-dimethyl-N-(2-(pyrrolidin-1-yl)ethyl)-1H-pyrrole-3-carboxamide] | – | – | – | – | – | 0.01 µM | 5.88 µM | – | 0.19 µM | 0.01 µM |
| COc1c(C)cnc(CN2C(=O)/C(=C\c3[nH]c(C)c(C(=O)NCCN4CCCCC4)c3C)c3c(Cl)nc(N)nc32)c1C [III-105, (Z)-5-((2-Amino-4-chloro-7-((4-methoxy-3,5-dimethylpyridin-2-yl)methyl)-6-oxo-6,7-dihydro-5H-pyrrolo[2,3-d]pyrimidin-5-ylidene)methyl)-2,4-dimethyl-N-(2-(piperidin-1-yl)ethyl)-1H-pyrrole-3-carboxamide] | – | – | – | – | – | 0.07 µM | > 1 µM | – | 1.28 µM | 0.1 µM |
| COc1c(C)cnc(CN2C(=O)/C(=C\c3[nH]c(C)c(C(=O)NCCN4CCS(=O)(=O)CC4)c3C)c3c(Cl)nc(N)nc32)c1C [III-106, 5-[2-Amino-4-chloro-7-(4-methoxy-3,5-dimethyl-pyridin-2-ylmethyl)-6-oxo-6,7-dihydro-pyrrolo[2,3-d]pyrimidin-(5Z)-ylidenemethyl]-2,4-dimethyl-1H-pyrrole-3-carboxylic acid [2-(1,1-dioxo-thiomorpholin-4-yl)-ethyl]-amide] | – | – | – | – | – | 0.04 µM | 0.24 µM | – | 0.09 µM | 0.04 µM |
| COc1c(C)cnc(CN2C(=O)/C(=C\c3[nH]c(C)c(C(=O)NCCN4CCC(O)CC4)c3C)c3c(Cl)nc(N)nc32)c1C [III-107, (Z)-5-((2-Amino-4-chloro-7-((4-methoxy-3,5-dimethylpyridin-2-yl)methyl)-6-oxo-6,7-dihydro-5H-pyrrolo[2,3-d]pyrimidin-5-ylidene)methyl)-N-(2-(4-hydroxypiperidin-1-yl)ethyl)-2,4-dimethyl-1H-pyrrole-3-carboxamide] | – | – | – | – | – | 0.02 µM | 0.23 µM | – | 0.02 µM | 0.005 µM |

Reference: patent publication US20110124634A1, “BIOACTIVE COMPOUNDS FOR TREATMENT OF CANCER AND NEURODEGENERATIVE DISEASES” (PONIARD PHARMACEUTICALS, INC., priority 2008, published 2011)
